Source: ChEMBL document CHEMBL3745664, “Synthesis, biological evaluation and QSAR studies of diarylpentanoid analogues as potential nitric oxideinhibitors” (Medchemcomm, 2015)

Tests used:
RAW264.7 [1] = experiment: Antiinflammatory activity in mouse RAW264.7 cells assessed as inhibition of LPS/IFN-gamma-stimulated nitric oxide production at 50 uM after 17 hrs by Griess assay; type: functional; settings: RAW264.7, 17 h
RAW264.7 [2] = experiment: Cytotoxicity against mouse RAW264.7 cells by MTT assay; type: cell-based
RAW264.7 [3] = experiment: Antiinflammatory activity in mouse RAW264.7 cells assessed as inhibition of LPS/IFN-gamma-stimulated nitric oxide production after 17 hrs by Griess assay; type: functional, cell-based; settings: RAW264.7, 17 h
[4] = Chemical stability of the compound in phosphate buffer at 20 uM at pH 7 at 25 degC by UV-visible spectrophotometric analysis; type: physicochemical; settings: pH 7, 20 µM
[5] = Chemical stability of the compound in phosphate buffer at 20 uM at pH 2.4 at 25 degC by UV-visible spectrophotometric analysis; type: physicochemical; settings: pH 2.4, 20 µM
[6] = Chemical stability of the compound in phosphate buffer at 20 uM at pH 12.7 at 25 degC by UV-visible spectrophotometric analysis; type: physicochemical; settings: pH 12.7, 20 µM

Compound | inhibition at 50 µM (RAW264.7 [1]) [%] | IC50 (RAW264.7 [2]) [µM] | IC50 (RAW264.7 [3]; read-out: IC50) [µM] | IC50 (RAW264.7 [3]; read-out: pIC50 (converted)) [µM] | Stability [4] | Stability [5] | Stability [6]
COc1ccc(/C=C/C=C/C(=O)c2cc(C)sc2C)cc1 | 44.8 | – | – | – | – | – | –
COc1ccc(C(=O)/C=C/C=C/c2ccc(O)cc2)c(O)c1 | 93.4 | > 100 | 27.1 | 27.1 | – | – | –
O=C(/C=C/C=C/c1ccc(Cl)cc1)c1ccc(Cl)cc1 | 31.2 | – | – | – | – | – | –
COc1ccc(/C=C/C=C/C(=O)c2ccc(OC)cc2OC)cc1 | < 10 | – | – | – | – | – | –
O=C(/C=C/C=C/c1ccc(O)cc1)c1ccc(O)cc1O | 82.1 | > 100 | 27.2 | 27.2 | – | – | –
COc1ccc(/C=C/C=C/C(=O)c2cc(C)oc2C)cc1 | 59.7 | > 100 | 39.8 | 45.7 | – | – | –
COc1ccc(/C=C/C=C/C(=O)c2ccc(C)cc2)cc1 | 42.2 | – | – | – | – | – | –
O=C(/C=C/C=C/c1ccccc1)c1cc(Cl)cc(Cl)c1O | 19.6 | – | – | – | – | – | –
COc1cc(/C=C/C(=O)CC(=O)/C=C/c2ccc(O)c(OC)c2)ccc1O [CURCUMIN] | 99.3 | > 100 | – | – | Unstable | Stable | Stable
CN(C)c1ccc(/C=C/C=C/C(=O)c2ccccc2O)cc1 | 16.4 | – | – | – | – | – | –
COc1ccc(/C=C/C=C/C(=O)c2ccc[nH]2)cc1 | 95.8 | > 100 | 57.4 | 57.4 | – | – | –
O=C(/C=C/C=C/c1ccccc1)c1cccc(O)c1 | 104 | 48.7 | 26.1 | 26.1 | – | – | –
O=C(/C=C/C=C/c1ccccc1)c1ccc(F)cc1 | 33.1 | – | – | – | – | – | –
CN(C)c1ccc(/C=C/C=C/C(=O)c2ccc(F)cc2)cc1 | 71.5 | > 100 | 63.8 | 63.8 | – | – | –
COc1cc(/C=C/C=C/C(=O)c2ccc(F)cc2)cc(OC)c1O | 76.7 | 5 | 39.3 | 39.3 | – | – | –
O=C(/C=C/C=C/c1ccccc1)c1cc(Cl)ccc1O | < 10 | – | – | – | – | – | –
COc1ccc(/C=C/C=C/C(=O)c2ccc(OC)c(O)c2)cc1 | 100 | 28.4 | 16.3 | 16.3 | – | – | –
COc1ccc(C(=O)/C=C/C=C/c2ccc(Cl)cc2)cc1 | 45.4 | 80.2 | 70.5 | 70.5 | – | – | –
COc1cc(/C=C/C=C/C(=O)c2ccccc2)cc(OC)c1O | 64.1 | 28.7 | 42 | 42 | – | – | –
COc1ccc(/C=C/C=C/C(=O)c2cc(Cl)ccc2O)cc1 | 26.4 | – | – | – | – | – | –
COc1ccc(/C=C/C=C/C(=O)c2ccc(O)c(Cl)c2)cc1 | 98.2 | 67.6 | 23.5 | 23.4 | – | – | –
COc1ccc(/C=C/C=C/C(=O)c2cc(OC)c(O)c(OC)c2)cc1 | 89.4 | 58.6 | 21.5 | 21.4 | – | – | –
O=C(/C=C/C=C/c1ccccc1)c1ccc(Cl)cc1 | < 10 | – | – | – | – | – | –

Compound | inhibition at 50 µM (RAW264.7 [1]) [%] | IC50 (RAW264.7 [2]) [µM] | IC50 (RAW264.7 [3]; read-out: IC50) [µM] | IC50 (RAW264.7 [3]; read-out: pIC50 (converted)) [µM] | Stability [4] | Stability [5] | Stability [6]
O=C(/C=C/C=C/c1ccccc1)c1cc(Br)ccc1O | < 10 | – | – | – | – | – | –
COc1ccc(/C=C/C=C/C(=O)c2ccco2)cc1 | 61.5 | 76.6 | 27.5 | 27.5 | – | – | –
O=C(/C=C/C=C/c1ccc(O)cc1)c1ccc(O)cc1 | 102 | > 100 | 16.4 | 16.4 | – | – | –
COc1ccc(C(=O)/C=C/C=C/c2ccc(N(C)C)cc2)cc1 | 54.5 | > 100 | 77.4 | 77.4 | – | – | –
O=C(/C=C/C=C/c1ccc(O)cc1)c1ccc(F)cc1 | 110 | 45.5 | 14.8 | 14.8 | – | – | –
COc1ccc(/C=C/C=C/C(=O)c2ccc(C)s2)cc1 | 41.7 | – | – | – | – | – | –
O=C(/C=C/C=C/c1ccccc1)c1ccccc1 | 66.8 | 44.3 | 44.6 | 44.6 | – | – | –
COc1ccc(/C=C/C=C/C(=O)c2cccs2)cc1 | 69.6 | 68.5 | 47.9 | 47.9 | – | – | –
COc1ccc(/C=C/C=C/C(=O)c2ccc(O)cc2F)cc1 | 102 | 60.3 | 21.8 | 21.8 | – | – | –
Cc1ccc(C(=O)/C=C/C=C/c2ccccc2)s1 | 52.6 | > 100 | 68.6 | 68.5 | – | – | –
Cc1ccc(/C=C/C=C/C(=O)c2ccccc2)cc1 | 73.7 | – | – | – | – | – | –
COc1ccc(/C=C/C=C/C(=O)c2cc(Cl)cc(Cl)c2O)cc1 | < 10 | – | – | – | – | – | –
Cc1ccc(C(=O)/C=C/C=C/c2ccc(O)cc2)s1 | 103 | 28.3 | 10.2 | 10.2 | Stable | Stable | Stable
COc1ccc(/C=C/C=C/C(=O)c2ccc(F)cc2)cc1 | 40 | – | – | – | – | – | –
Cc1cc(C(=O)/C=C/C=C/c2ccccc2)c(C)o1 | 84.6 | > 100 | 59 | 58.9 | – | – | –
COc1ccc(/C=C/C=C/C(=O)c2ccc(OC)cc2)cc1 | 41.6 | – | – | – | – | – | –
COc1ccc(/C=C/C=C/C(=O)c2ccccc2)cc1 | 77.4 | > 100 | 45.8 | 45.8 | – | – | –
O=C(/C=C/C=C/c1ccc(Cl)cc1)c1cc(Cl)ccc1O | < 10 | – | – | – | – | – | –
CN(C)c1ccc(/C=C/C=C/C(=O)c2ccco2)cc1 | 56.9 | > 100 | 116 | – | – | – | –
COc1ccc(C(=O)/C=C/C=C/c2ccccc2)cc1 | 51.1 | > 100 | 71.2 | 71.1 | – | – | –
O=C(/C=C/C=C/c1ccccc1)c1ccccc1O | < 10 | – | – | – | – | – | –
CN(C)c1ccc(/C=C/C=C/C(=O)c2cccs2)cc1 | 32.4 | – | – | – | – | – | –
CN(C)c1ccc(/C=C/C=C/C(=O)c2ccccc2)cc1 | 51.2 | > 100 | 73.6 | 73.5 | – | – | –
